Measured values taken from paper PMC7985297 (Communications Biology, 2021).
“And” between values parts separate entries of the source, which are not always exact repeats. Identical values can stand only once.

How the values were obtained:
[1] = molecular target: T1, recombinant human Pin1 protein (Homo sapiens, UniProt Q13526); test: Pin1 inhibition assay (fluorometric isomerase activity); format: biochemical; conditions: compounds 0–50 µM, 500 ng Pin1, Supplementary Fig. 2
T1 construct: purchased Abcam ab51230
T1 sequence (Q13526 whole entry): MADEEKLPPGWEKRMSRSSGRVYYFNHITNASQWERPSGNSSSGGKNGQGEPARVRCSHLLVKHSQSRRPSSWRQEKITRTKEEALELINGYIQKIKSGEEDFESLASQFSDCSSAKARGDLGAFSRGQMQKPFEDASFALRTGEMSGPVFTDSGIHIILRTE
Experimental: The effect of inhibitors on Pin1 isomerase activity was evaluated using a fluorometric Pin1 Assay Kit (AnaSpec, Fremont, California), according to the manufacturer’s protocol. […] Fluorescence intensity was measured with excitation wavelength at 490 nm and emission wavelength at 520 nm on an Infinite M1000 plate reader (Tecan, Männedorf, Switzerland) at 37 °C. Measurements were recorded every 5 min for up to 1 h.
Fluorescent polarization-based assay
the isomerase activity of Pin1. Each reaction contains 500 ng of
recombinant human Pin1 protein incubated with an inhibitor and a
fluorogenic substrate at 37°C. The uncatalyzed reaction represents
the intrinsic cis/trans isomerization of the substrate without Pin1
separate experiments with the correlation performed in duplicate
wells. RFU, relative fluorescent units.
(1 picture or pasted object on this page, not shown here)

[2] = Body weight and tolerability in the xenograft study; format: in vivo, mice; conditions: ATRA 5mg
PC-3 cells = test: BrdU incorporation assay, PC-3; format: cell-based, human; conditions: ATRA 10 µM; for BrdU incorporation, PC-3 (Fig. 4c): − R1881, ENZ 10 µM, EPI-002 25 µM, JUG 20 µM
Experimental: (§1) Cells were treated with the inhibitors and stimulated with 1 nM of R1881 (+) or vehicle (−) for 24 to 72 h. Each data point represents the average from an independent experiment where the error bars show the mean ± s.e.m.
(§2) BrdU incorporation was determined with the colorimetric BrdU ELISA kit (Roche Diagnostics), according to the manufacturer’s protocol. In brief, cells were seeded in 96-well plates (LNCaP, 5000/well; LN95, 8000/well; PC-3 and DU145, 4000/wells) in media with reduced serum (0.5–1%). On the following day, cells were pre-treated with test compounds for 1 h and then incubated with 0.1 nM of R1881. After the indicated incubation times, cells were labeled with 10 μM of BrdU for 2 h and then fixed for the assay.

LN95 cells = test: Senescence-associated β-galactosidase staining, LN95; conditions: 3 days
Experimental: β-galactosidase activity at suboptimal pH (6.0) was used as a marker to detect cellular senescence[42]. Cells were seeded in four-well chamber slides at a density of 8000-10,000 cells. […] Three days later, the media was removed and cells were fixed with 2% formaldehyde/0.2% glutaraldehyde for 10 min at room temperature, washed with PBS, and then incubated with freshly prepared β-Gal staining solution (Cell Signaling) titrated to pH 6.0. Staining was optimal after incubating with the β-Gal solution at 37 °C for 16–18 h. After staining, the slides were washed twice with PBS, once with absolute methanol, and then mounted with 50% glycerol/PBS. The percentage of β-galactosidase-positive cells were counted with ImageJ using the Cell Counter plugin. A total of nine images containing 100–300 cells were scored to determine the percentages of positive cells.

DU145 cells = test: BrdU incorporation assay, DU145; format: cell-based, human; conditions: ATRA 10 µM
Experimental: as §1, §2

full-length AR = molecular target: T2, full-length AR (Homo sapiens, UniProt P10275, T878A); test: Probasin (PB)-luciferase AR-driven reporter assay in LNCaP cells; format: cell-based; conditions: 24 h, R1881 1 nM
T2 construct: Transcriptional activity of full-length AR was assessed in LNCaP cells; endogenous in cells; host or cells: LNCaP
T2 sequence (P10275 1-920 T878A): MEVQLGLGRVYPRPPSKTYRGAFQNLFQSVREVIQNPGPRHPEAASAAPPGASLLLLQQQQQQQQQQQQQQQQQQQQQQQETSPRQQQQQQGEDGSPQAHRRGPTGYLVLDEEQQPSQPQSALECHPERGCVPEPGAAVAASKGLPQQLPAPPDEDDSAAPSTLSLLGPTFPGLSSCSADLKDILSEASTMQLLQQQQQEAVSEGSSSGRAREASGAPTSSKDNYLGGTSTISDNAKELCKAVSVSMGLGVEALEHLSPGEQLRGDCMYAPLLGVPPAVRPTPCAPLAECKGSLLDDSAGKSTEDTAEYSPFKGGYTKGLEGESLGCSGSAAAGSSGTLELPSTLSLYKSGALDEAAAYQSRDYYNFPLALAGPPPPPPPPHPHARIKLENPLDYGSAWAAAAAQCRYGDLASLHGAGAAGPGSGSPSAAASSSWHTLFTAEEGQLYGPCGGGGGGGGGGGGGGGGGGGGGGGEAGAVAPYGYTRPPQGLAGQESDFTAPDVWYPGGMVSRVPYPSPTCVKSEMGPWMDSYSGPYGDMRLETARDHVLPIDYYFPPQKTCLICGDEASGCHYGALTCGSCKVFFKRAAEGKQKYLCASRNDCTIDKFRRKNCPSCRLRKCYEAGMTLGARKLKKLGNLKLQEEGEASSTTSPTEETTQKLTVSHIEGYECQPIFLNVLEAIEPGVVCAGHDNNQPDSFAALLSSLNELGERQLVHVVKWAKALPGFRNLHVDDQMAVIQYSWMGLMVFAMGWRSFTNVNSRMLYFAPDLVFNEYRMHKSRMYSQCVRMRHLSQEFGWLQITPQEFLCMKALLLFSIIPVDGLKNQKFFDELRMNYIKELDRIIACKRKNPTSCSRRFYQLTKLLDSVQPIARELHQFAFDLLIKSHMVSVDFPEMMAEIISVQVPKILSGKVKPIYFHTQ

[3] = system: phosphorylated MAPK (p44 and p42) and STAT3 (Tyr705 and Ser727); test: Western blot of phosphorylated MAPK and STAT3 after IL-6 in LNCaP cells; format: cell-based, human; conditions: juglone 20 µM, IL-6 50 ng/mL 15 min
Experimental: Fig. 3 Pin1 interacts with the AR NTD and regulates transactivation. a, b Transactivation assays performed in LNCaP cells expressing a vector encoding the human AR NTD fused to a Gal4 DNA-binding domain (Gal4-ARN). […] Input samples show Pin1 expression from lysates before the pull-down. i Co-immunoprecipitation assay showing AR protein co-immunoprecipitated with STAT3 from LNCaP cells incubated with EPI-002 (EPI, 35 μM), juglone (JUG, 30 μM), or vehicle (VEH, DMSO), and IL-6 (50 ng/mL) for 6 h. j, k Levels of phosphorylated MAPK (isoforms p44 and p42) and phosphorylated STAT3 (Tyr705 and Ser727) from LNCaP cells pre-treated with juglone (20 µM) and then stimulated with IL-6 (50 ng/mL) for 15 min. Error bars show the mean ± s.e.m. *P < 0.05, **P < 0.01, ***P < 0.001; ns not significant.

Q: With `CC1=C(/C=C/C(C)=C/C=C/C(C)=C/C(=O)O)C(C)(C)CCC1` [ATRA, all-trans retinoic acid] as the molecule, how does the “effect on isomerase activity of Pin1” value [1] read?
A: The value was “inhibited the isomerase activity of Pin1 in a dose-dependent manner”.

Q: What about the “Body weight, individual animals (Fig. 7c)” value (shortened to “Body weight”) ([2]; treatment duration 0 days) of the same molecule?
A: Its value is 26.7 and 29.9 and 28.1 and 28.2 and 29.3 and 28.3 and 30.2 (2×).

Q: And the “Body weight” value ([2]; treatment duration 1 days, in g (unit assumed))?
A: The value was 26.8 and 30.1 and 28.1 and 27.9 and 29.3 and 28.7 and 29 and 29.8.

Q: And the “Body weight” value ([2]; treatment duration 2 days)?
A: The value was 26.7 and 29.8 and 27.6 (2×) and 28.9 and 28.8 and 29.1 and 29.4.

Q: What about the “Body weight” value ([2]; treatment duration 3 days) of the same molecule?
A: The value was 25.9 and 29 and 25.6 and 26.8 and 28.1 and 28.3 (2×) and 28.9.

Q: And the “Body weight” value ([2]; treatment duration 4 days, in g (unit assumed))?
A: Its value is 25.2 and 28.9 and 27 and 27.1 and 29.1 and 28.5 and 27.5 and 28.7.

Q: What about the “Body weight” value ([2]; treatment duration 5 days, in g (unit assumed)) of the same molecule?
A: The value was 23.9 and 28.3 and 26.5 and 27 and 28.5 and 28.2 and 26.8 and 27.8.

Q: What about the “Body weight” value ([2]; treatment duration 6 days, in g (unit assumed)) of the same molecule?
A: Its value is 23.9 and 27.9 and 26.1 and 26.5 and 28.2 and 27.4 and 26.8 and 28.

Q: And the “Body weight” value ([2]; treatment duration 7 days)?
A: The value was 23.9 and 27.5 (2×) and 25.7 and 26.4 and 28.1 and 26.9 and 27.6.

Q: And the “Body weight” value ([2]; treatment duration 8 days, in g (unit assumed))?
A: Its value is 23.1 and 27.9 and 25.6 and 26.6 and 28.2 and 27.4 and 25.9 and 27.6.

Q: And the “Body weight” value ([2]; treatment duration 9 days)?
A: Its value is 22.3 and 27.6 and 25.3 (2×) and 26.2 and 28.4 and 27.3 and 27.7.

Q: What about the “Body weight” value ([2]; treatment duration 10 days) of the same molecule?
A: The value was 22.1 and 28.3 and 24.9 and 26.3 (2×) and 27.9 and 25.2 and 27.4.

Q: And the “Body weight” value ([2]; treatment duration 11 days, in g (unit assumed))?
A: The value was 22 and 28 and 24.2 and 26 and 27.8 and 25.3 and 24.7 and 27.2.

Q: What about the “Body weight” value ([2]; treatment duration 12 days, in g (unit assumed)) of the same molecule?
A: Its value is 21.9 and 27.9 and 24.6 and 26.1.

Q: And the “effect on proliferation of PC-3 cells” value (PC-3 cells)?
A: Its value is “did not impact the proliferation of either PC-3 or DU145 cells”.

Q: And the “BrdU incorporation, PC-3 (Fig. 4c)” value (PC-3 cells)?
A: The value was 1.204 and 0.885 and 0.987 and 1.277.

Q: And the “effect on percentage of SA β-gal-positive cells” value (LN95 cells; LN95, ATRA 10 µM)?
A: Its value is “significantly increased the percentage of SA β-gal-positive cells for LNCaP and LN95 cells”.

Q: And the “SA β-gal-positive cells” value (LN95 cells; LN95, ATRA 10 μM, EPI-002 25 μM)?
A: The value was 37%.

Q: What about the “effect on proliferation of DU145 cells” value (DU145 cells) of the same molecule?
A: Its value is “did not impact the proliferation of either PC-3 or DU145 cells”.

Q: What about the “BrdU incorporation, DU145 (Fig. 4d)” value (DU145 cells; − R1881, ENZ 10 µM, EPI-002 25 µM, JUG 20 µM) of the same molecule?
A: The value was 0.607 and 0.932 and 1.111 and 0.945.

Q: Which results are given for `O=C1C=CC(=O)c2c(O)cccc21` [juglone]?
A: effect on isomerase activity of Pin1 [1]: inhibited the isomerase activity of Pin1 in a dose-dependent manner; remaining activity at 10 µM (full-length AR; inhibitor 10 μM, read-out: PB-luciferase activity normalized to the induction by R1881 (=100) (Fig. 2b)): 22.5%; IC50 (full-length AR; read-out: IC50, androgen-induced PB-luciferase activity): 6.45 µM; BrdU incorporation, PC-3 (Fig. 4c) (PC-3 cells; listed as JUG): 0.17 and 0.16 and 0.171 and 0.227; effect on IL-6-induced phosphorylation of MAPK and STAT3 [3]: did not prevent phosphorylation of MAPK (isoforms p44 and p42) or STAT3 (Tyr705 and Ser727)
